One data set relates to 3T3. Briefly: In vitro 3T3 NRU phototoxicity test. It counts as cell-based. On the procedure:
Test Example 6 Drug Pharmacokinetic Test, Safety Pharmacology Test, and Toxicity Test
Using some Example compounds of the present invention, a drug Pharmacokinetic test, a safety pharmacology test, and a toxicity test were carried out.
(iii) For the toxicity test, for example, an in vitro phototoxicity test was carried out. The evaluation of the in vitro phototoxicity test was carried out in accordance with Guidance for industry photosafety testing, Center for Drug Evaluation and Research Food and Drug Administration, 2003, which is a guideline of FDA (U.S. Food and Drug Administration), and Note for guidance on photosafety testing (CPMP/SWP/398/01, 2002) which is a guideline of EMA (European Medicines Agency), and the method described in OECD guideline for testing of chemicals 432: In vitro 3T3 NRU phototoxicity test, 2004, which is a test method described in the report of OECD.

Another data set has as its system urethral pressure. The data set is described as follows: Effect of test compound on urethral pressure in anesthetized rats. Particulars: 0.1 mg/kg intravenously, urethane-anesthetized SD female rats. The class given is in vivo, rat. From the text: Test Example 3 Test to Evaluate Effect of Test Compound on Urethral Pressure
It has been reported that an increase in the urethra pressure is useful for the treatment of urinary incontinence, particularly stress urinary incontinence (for example, Drugs, 64, 14, 1503-1516 (2004)). In order to confirm whether the compound of the present invention increases the urethra pressure and thus is useful for the treatment of urinary incontinence, particularly stress urinary incontinence, the following tests were carried out.
SD female rats were anesthetized with urethane and subjected to laparotomy. Then, the bladder apex was incised and a catheter was inserted from the bladder apex. Further, the catheter tip was ligated and fixed to be located in the proximal urethra portion. The catheter was connected to a pressure transducer and an infusion pump. Further, a catheter for administrating the compound was fitted into the femoral vein. Physiological saline was continuously infused into the urethra and the perfusion pressure in the urethra was measured. After the urethral pressure was stabilized, the test compound that had been dissolved in physiological saline, or physiological saline including 5% dimethylacetamide and 0.5% Cremophor was administered intravenously at 0.1 mg/kg, and a change in urethral pressures was measured.
Further, the results of administering an active metabolite of midodrine (ST-1059: purchased from CHEMIZON) (J. Urology, 118, 980-982 (1977)) which is an α1 adrenoceptor agonist and has an effect on stress urinary incontinence in rat doses (0.01 mg/kg) presumed to correspond to the clinical doses are referenced and shown in the Tables below. The increment value in the urethra pressures of ramelteon and the Example compounds of the present invention at the time of administration are shown in Table 4. Ex represents Example No. of the test compound.

Data set [1] in a line: CNS penetration: CSF to plasma unbound concentration ratio in rat. It counts as in vivo. Particulars: CSF and plasma (unbound), iv, 15 minutes after intravenous administration, CCSF/Cplasma,u, read-out: Kp,uu,CSF,iv15min. On the procedure: Test Example 4 Test for Evaluating CNS Penetration
(1) Measurement of Unbound Fraction (fp) in Rat Plasma
A test compound (100 μg/mL, 50% acetonitrile solution) at 1% (v/v) with respect to the amount of the plasma was added to rat plasma, and dispensed to a sample for a supernatant and a sample for the plasma. The sample for a supernatant was ultracentrifuged at 436,000×g and 37° C. for 140 minutes, and the sample for the plasma was incubated at 37° C. for 140 minutes.
After 140 minutes, the sample for a supernatant after the ultracentrifugation and the sample for the plasma were taken, and mixed with the blank plasma or the blank supernatant, respectively. Acetonitrile including an internal standard material was added to each of the samples, and after the centrifugation at 2150×g and 4° C. for 10 minutes the supernatant was injected into LC-MS/MS.
The unbound fraction in the plasma was calculated by the following equation.
(wherein fp: an unbound fraction in the plasma and D: a dilution rate of the plasma. fu,app=peak area ratio of supernatant sample/peak area ratio of the plasma sample, and peak area ratio=peak area of test compound/peak area of internal standard material).
(2) The CSF to Plasma Unbound Concentration Ratio in Rat
A 50% acetonitrile solution and an acetonitrile including internal standard material was added to the collected plasma or CSF. After centrifugation at 4° C. and 2150×g for 10 minutes, the supernatant was injected into LC-MS/MS, and the total concentration of the test compound in the plasma (Cplasma,t) and the concentration of the test compound in CSF (CCSF) were obtained. The unbound concentration in the plasma (Cplasma,u) of the test compound and the CSF-to plasma unbound concentration ratio (Kp,uu,CSF) of the test compound was calculated by the following equation.
(§1) Ex represents Example No. of the test compound.

Another data set addresses human MT1 receptor (Homo sapiens, UniProt P48039). Briefly: Activation of human MT1 receptor in receptor-expressing HEK293 cells (intracellular Ca2+, FLIPR). It counts as cell-based. Particulars: for Emax: HEK293, maximum reaction by ramelteon taken as 100%, solvent only 0%, read-out: MT1 Emax (%); for EC50: HEK293 cells stably expressing human MT1 and Gq/i chimeric G-protein, intracellular Ca2+ by FLIPR. The protocol: (§2) (1) Isolation of Human MT1 and MT2 Receptor and Construction of Expression Vector
(§3) A human MT1 receptor gene (GenBank Accession No.: NM_005958.3) and a human MT2 receptor gene (GenBank Accession No.: NM_005959.3) were each introduced into an expression vector pCDNA3.1/Zeo (Invitrogen, Inc.).
(§4) (2) Construction of Cells Stably Expressing Human MT1 and Human MT2 Receptor
(§5) The introduction was carried out according to the attached instructions, using a Lipofectoamine (registered trademark) 2000 Reagent (Invitrogen, Inc.). Zeocin and hygromycin were used as a resistant drug, and the cell was incubated for 15 days at 0.02 mg/mL and 0.05 mg/mL, respectively, thereby acquiring drug-resistant clones.
(§6) (3) Measurement of Intracellular Ca^2+ Concentration by FLIPR (Registered Trademark)
(§7) The respective stably expressing cells were dispensed into 96-well poly-D-lysine-coated plates (Falcon Co.) to 40,000 cells/well the day before the experiment, and incubated overnight in a DMEM (Invitrogen, Inc.) medium including 10% FBS at 37° C. and 5% CO2. The medium was replaced with a loading buffer (washing solution (Hank's balanced salt solution (HBSS), 20 mM HEPES-NaOH, 2.5 mM probenecid) including Fluo-4AM (Dojindo Co.) at 4 μM), and incubated for 1 hour at 37° C. and 5% CO2. Thereafter, the cells were washed with a plate washer (ELx405, BIO-TEK Instrument, Inc.) set with the washing solution, and set in an intracellular Ca^2+ concentration measuring systems (FLIPR (registered trademark), Molecular Device Co.). The test compound was dissolved in the washing solution in advance, diluted to a final concentration of −12 to −5 log M, set in a FLIPR (registered trademark) device together with the cells, and added to the cells in the device. At this time, a change in the intracellular Ca^2+ concentrations was measured.
as §1

The next data set addresses T1, human MT2 receptor (Homo sapiens, UniProt P49286).
T1 sequence (P49286 1-362): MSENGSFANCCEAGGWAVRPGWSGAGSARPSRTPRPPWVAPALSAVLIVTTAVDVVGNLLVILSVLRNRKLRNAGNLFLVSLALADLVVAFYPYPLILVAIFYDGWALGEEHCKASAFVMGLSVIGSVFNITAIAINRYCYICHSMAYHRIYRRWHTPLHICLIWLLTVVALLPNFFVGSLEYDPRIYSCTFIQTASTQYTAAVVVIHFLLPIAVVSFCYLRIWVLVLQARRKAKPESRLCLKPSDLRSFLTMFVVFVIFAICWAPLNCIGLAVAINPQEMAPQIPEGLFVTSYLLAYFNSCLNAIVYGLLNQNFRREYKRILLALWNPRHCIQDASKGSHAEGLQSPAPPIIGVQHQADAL
The data set is described as follows: Activation of human MT2 receptor in receptor-expressing HEK293 cells (intracellular Ca2+, FLIPR). It counts as cell-based. The settings on record: for Emax: HEK293, maximum reaction by ramelteon taken as 100%, solvent only 0%; for EC50: HEK293 cells stably expressing human MT2 and Gq/i chimeric G-protein, intracellular Ca2+ by FLIPR. The protocol:
as §2, §3, §4, §5, §6, §7, §1

For the next data set, the system named is isolated urethra. Briefly: Isolated urethra contractile action. Particulars: test compound at 1 μM; contractile response by 10 μM phenylephrine as 100%; SD female rat urethra; read-out: Isolated urethra contraction (%). Details: species or system rat. On the procedure: Test Example 2 Isolated Urethra Contractile Action
(1) Evaluation Test on Urethra Contractile Action of Test Compound Using Isolated Urethra
The urethra was isolated from an SD female rat having a body weight of 100 to 500 g. The isolated urethra was incised longitudinally to give a rectangular strip specimen having a width of about 3 mm, which was suspended in the circular muscle direction in 10 mL of a tissue bath filled with a Krebs-Henseleit solution (pH 7.4). The Krebs-Henseleit solution was bubbled with 95% O2 and 5% CO2, and kept at 37° C. The resting tension was set to 0.5 g to record the isometric contraction. After the resting tension was stabilized, contraction was elicited by the addition of 10 μM phenylephrine. After washing and stabilizing, the test compound was added cumulatively to a final concentration of −12 to −5 log M to measure a contractile response. By taking the contractile response by 10 μM phenylephrine as 100%, the ratio of the contractile response in the concentration of the test compound at 1 μM was calculated.
as §1

Molecules are shown by their SMILES.

Sequence of human MT1 receptor (P48039 whole entry): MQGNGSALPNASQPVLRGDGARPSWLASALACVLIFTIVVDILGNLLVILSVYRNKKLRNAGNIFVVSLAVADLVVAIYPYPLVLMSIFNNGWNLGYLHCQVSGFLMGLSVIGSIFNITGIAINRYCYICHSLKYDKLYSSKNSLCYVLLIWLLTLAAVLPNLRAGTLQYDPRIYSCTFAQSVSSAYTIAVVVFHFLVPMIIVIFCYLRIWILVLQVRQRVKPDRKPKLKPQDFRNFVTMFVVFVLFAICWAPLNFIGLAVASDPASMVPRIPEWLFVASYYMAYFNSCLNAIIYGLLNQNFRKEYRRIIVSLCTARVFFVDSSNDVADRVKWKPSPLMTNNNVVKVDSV

As for `CNC(=O)NCCc1c(C(=O)NC)[nH]c2ccc(OC)cc12` [Ex 8, 5-methoxy-N-methyl-3-{2-[(methylcarbamoyl)amino]ethyl}-1H-indole-2-carboxamide], the phototoxicity action entry with 3T3 was “no phototoxicity action”. Moreover, the “Increment value in the urethra pressures (mmHg)” value (shortened to “Increment value”) in the data set with urethral pressure is 6.0 ± 0.4 mmHg. Moreover, in data set [1], the Kp uu at 0.25 h is 0.03. In addition, the Emax turned out to be 124% at human MT1 receptor and 119% at human MT2 receptor. The figures for the EC50 on human MT1 receptor and on human MT2 receptor were 12 nM and 19 nM, respectively.

Regarding `CNC(=O)c1[nH]c2cc(F)c(OC)cc2c1CCNC(=O)C(F)F` [Ex 15], in the data set with 3T3, the phototoxicity action result was “no phototoxicity action”. In addition, in the data set with urethral pressure, the “Increment value” value turned out to be 8.6 ± 0.9 mmHg. For the same molecule, in data set [1], the Kp uu at 0.25 h was 0.07. At human MT1 receptor, the Emax was determined as 104% and the midpoint of the response, the EC50, lay at 5.4 nM. At human MT2 receptor, the maximal effect (Emax) stood at 103% and the EC50 was 17 nM. Also, in the data set on isolated urethra, the activation at 1 µM was found to be 261%.

With `CNC(=O)c1[nH]c2cc(F)c(OC)cc2c1CCNC(C)=O` [Ex 56, 3-(2-acetamidoethyl)-6-fluoro-5-methoxy-N-methyl-1H-indole-2-carboxamide], the melting point was in the range of 209 to 212 °C.

`CNC(=O)c1[nH]c2cc(F)c(OC)cc2c1CCNC(=O)C(F)F` [Ex 57, 3-{2-[(difluoroacetyl)amino]ethyl}-6-fluoro-5-methoxy-N-methyl-1H-indole-2-carboxamide]: the melting point is 196 to 200 °C.

As for `CNC(=O)c1[nH]c2ccc(OC)cc2c1CCNC(C)=O` [Ex 1, 3-(2-acetamidoethyl)-5-methoxy-N-methyl-1H-indole-2-carboxamide], the phototoxicity action result with 3T3 is “no phototoxicity action”. Further, in the data set with urethral pressure, the “Increment value” value was 5.1 ± 0.6 mmHg. Further, in data set [1], the Kp uu at 0.25 h is 0.18. Moreover, at human MT1 receptor, the Emax was determined as 104% and the midpoint of the response, the EC50, lay at 12 nM. At human MT2 receptor, this molecule yielded an Emax of 108% and an EC50 of 26 nM. Moreover, in the data set with isolated urethra, the activation at 1 µM is 128%.

(Values after patent US9376449B2, “Indole carboxamide derivative” (Astellas Pharma Inc., priority 2012, dated 2016).)
